Patent publication US20140163100A1, “Methods of Treating Multiple Sclerosis and Preserving and/or Increasing Myelin Content” (BIOGEN IDEC MA INC., priority 2011, published 2014)
Counter-ions that a name gives are not always drawn. Like-named read-outs stand apart in the source and are kept apart here.

Legend:
[1] = system: subjects with relapsing-remitting multiple sclerosis; assay: First Phase 3 clinical trial: relapse and disability efficacy; type: in vivo, human; details: for reduction of ARR vs placebo / reduction of risk of confirmed, 12-week disability progression: 2 years; for annualized relapse rate (ARR): 2 years (placebo 0.36); for reduction of risk of confirmed, 12-week disability progression: EDSS; for reduction of proportion of subjects relapsing compared with placebo: at 2 years
Experimental: The primary endpoint of the study in Example 1 was the proportion of subjects relapsing at 2 years, with relapses confirmed by an independent neurology evaluation committee (“INEC”) to ensure consistent and accurate reporting across sites. Secondary clinical efficacy endpoints at 2 years were the annualized relapse rate (“ARR”) and disability progression using EDSS. Efficacy analyses were conducted on the intention-to-treat population.

[2] = First Phase 3 clinical trial: safety and tolerability (adverse events); type: in vivo, human
Experimental: Safety and tolerability were assessed by continuous adverse event (“AE”) monitoring and laboratory tests at all monthly visits. Additionally, physical examination, vital signs, and 12-lead ECG were evaluated. As an ethical consideration, subjects' reconsent was required following any protocol-defined disability progression or relapse.

[3] = system: subjects with relapsing-remitting multiple sclerosis; assay: First Phase 3 clinical trial: MRI lesion loads; type: in vivo, human; details: 2 years
Experimental: Subjects from 76 sites out of 198 participating in the study described in Example 1 had MRI scans at baseline, 24 weeks, 1 year and 2 years. Number of new or newly enlarging T2 lesions and number of gadolinium-enhancing (Gd+) lesions at 2 years were secondary endpoints of the study. Analyses were conducted on the MRI intention-to-treat population.

[4] = system: subjects with relapsing-remitting multiple sclerosis; assay: First Phase 3 clinical trial: quality of life (SF-36, VAS); type: in vivo, human; details: for mean SF-36 PCS score: at 2 years (placebo 42.0); for SF-36 Mental Component Scale score: at 2 years (placebo 44.6); for mean VAS score (global impression of well-being): at 2 years (placebo 60.3)
Experimental: Subjects participating in the study described in Example 1 were provided an SF-36 questionnaire to measure the subjects' health status and health-related quality of life (“QoL”) at baseline, 6, 12, and 24 months, on eight multi-item, 100-point scales, with higher scores indicating higher QoL. These scores were used to calculate the Physical Component Summary (“PCS”) and Mental Component Summary (“MCS”) scores. In addition, the subjects' global impression of well-being was assessed at baseline and every 3 months using a 100-point, visual analogue scale (VAS) with higher score indicating improvement in well-being.

[5] = system: subjects with relapsing-remitting multiple sclerosis; assay: First Phase 3 clinical trial: magnetization transfer ratio (MTR) substudy; type: in vivo, human
From the text: The study described in Example 1 included a substudy to examine change in magnetization transfer ratio (“MTR”) with treatment. MTR imaging has been proposed for use as a biomarker of changes in the myelin content of brain white matter. The aim of the study was to determine change in brain and lesion MTR in RR-MS. MTR scans were obtained in a subset of subjects at baseline and 6, 12 and 24 months, using manufacturer-supplied MT pulse sequences. MTR substudies were implemented at 64 of 76 MRI sites (84%) and included a total of 540 subjects: 176 in the dimethyl fumarate 240 mg bid group, 184 in the dimethyl fumarate 240 mg tid group, and 180 in the placebo group.

mouse MS model = assay: Mouse MS model, neuroprotective effects; type: in vivo; details: mouse MS model with features of advanced stages of chronic forms of MS
From the text: Although many well characterized rodent and primate models for MS exist, only recently have the characteristic features of progressive MS been identified in select animal models.

[6] = human, in vivo
Experimental: A second randomized, double-blind, placebo-controlled, multicenter, phase 3 clinical trial was conducted to evaluate the efficacy and safety of dimethyl fumarate over 2 years in subjects with relapsing-remitting multiple sclerosis (“RR-MS”).
Subjects 18-55 years of age with RR-MS and an Expanded Disability Status Scale score of 0.0-5.0 (inclusive) and having one or more relapses in the prior 12 months or one or more Gd^+ lesions in the prior 6 weeks were eligible for enrolment. Subjects were randomly assigned to placebo, dimethyl fumarate 240 mg PO twice daily (BID), dimethyl fumarate three times daily (TID), glatiramer acetate 20 mg SC once daily (QD).

COC(=O)/C=C/C(=O)OC [dimethyl fumarate]
reduction of ARR vs placebo ([1]; 240 mg BID): 53%
annualized relapse rate (ARR) ([1]; 240 mg BID): 0.17
reduction of risk of confirmed, 12-week disability progression ([1]; 240 mg BID): 38%
Annualized relapse rate at 2 years, % Reduction vs. Placebo ([1]; 240 mg BID, <40 years): 63%
Proportion of patients relapsed at 2 years, % Reduction vs. Placebo ([1]; 240 mg BID, <40 years): 59%
Time to confirmed disability progression at 2 years, % Reduction vs. Placebo ([1]; 240 mg BID, <40 years): 62%
reduction of proportion of subjects relapsing compared with placebo ([1]; 240 mg BID): 49%
Annualized relapse rate at 2 years, % Reduction vs. Placebo ([1]; 240 mg BID, ≧40 years): 34%
Proportion of patients relapsed at 2 years, % Reduction vs. Placebo ([1]; 240 mg BID, ≧40 years): 26%
Time to confirmed disability progression at 2 years, % Reduction vs. Placebo ([1]; 240 mg BID, ≧40 years): 8%
Annualized relapse rate at 2 years, % Reduction vs. Placebo ([1]; 240 mg TID, <40 years): 59%
Proportion of patients relapsed at 2 years, % Reduction vs. Placebo ([1]; 240 mg TID, <40 years): 56%
Time to confirmed disability progression at 2 years, % Reduction vs. Placebo ([1]; 240 mg TID, <40 years): 38%
Annualized relapse rate at 2 years, % Reduction vs. Placebo ([1]; 240 mg TID, ≧40 years): 29%
Proportion of patients relapsed at 2 years, % Reduction vs. Placebo ([1]; 240 mg TID, ≧40 years): 37%
Time to confirmed disability progression at 2 years, % Reduction vs. Placebo ([1]; 240 mg TID, ≧40 years): 32%
reduction of ARR vs placebo ([1]; TID): 48%
annualized relapse rate (ARR) ([1]; TID): 0.19
reduction of risk of confirmed, 12-week disability progression ([1]; TID): approximately 34%
reduction of proportion of subjects relapsing compared with placebo ([1]; TID): 50%
efficacy by age subgroup ([1]; subjects under 40 years vs 40 years or older, 240 mg BID and TID): more efficacious in subjects under 40 years of age
deaths ([2]; dimethyl fumarate TID arm, result of a motor vehicle accident): One death
MS relapse reported as AE ([2]; human, in vivo): 27%
opportunistic infections ([2]; human, in vivo): no opportunistic infections were observed
AEs reported by subjects ([2]; human, in vivo, 2 years): 95%
Incidence of infections and infestations ([2]; human, in vivo, 2 years): 64-68%
Incidence of severe infections and infestations ([2]; human, in vivo, 2 years): 2-3%
Severe AEs reported ([2]; human, in vivo, 2 years): 17%
subjects discontinuing treatment due to AEs (number) ([2]; human, in vivo, 2 years): 68
subjects discontinuing treatment due to AEs (percent) ([2]; human, in vivo, 2 years): 16%
subjects reporting flushing ([2]; human, in vivo, 2 years): 32%
subjects withdrew from the study ([2]; human, in vivo, 2 years): approximately 23%
reduction of mean number of Gd+ lesions compared with placebo ([3]; 240 mg BID): 94%
reduction of mean number of new or newly enlarging T2 lesions compared with placebo ([3]; 240 mg BID): 85%
reduction of mean number of Gd+ lesions compared with placebo ([3]; TID): 72%
reduction of mean number of new or newly enlarging T2 lesions compared with placebo ([3]; TID): 74%
mean SF-36 PCS score ([4]; 240 mg BID): 43.4
SF-36 Mental Component Scale score ([4]; 240 mg BID): 45.5
mean VAS score (global impression of well-being) ([4]; 240 mg BID): 64.3
mean SF-36 PCS score ([4]; TID): 44.2
SF-36 Mental Component Scale score ([4]; TID): 46.1
mean VAS score (global impression of well-being) ([4]; TID): 65.7
increase from baseline in whole brain MTR ([5]; 240 mg bid (placebo −0.386%)): 0.129%
increase from baseline in normal appearing brain tissue MTR ([5]; 240 mg bid (placebo −0.392%)): 0.190%
increase from baseline in whole brain MTR ([5]; 240 mg tid (placebo −0.386%)): 0.096%
increase from baseline in normal appearing brain tissue MTR ([5]; 240 mg tid (placebo −0.392%)): 0.115%
neuroprotective effects (mouse MS model): reduction in demyelination and axonal damage
most frequently reported AEs associated with dimethyl fumarate [6]: flushing, diarrhea, nausea, upper respiratory tract infection, abdominal pain, and proteinuria
AEs reported by subjects ([6]; 2 years): 92%
subjects discontinuing treatment due to AEs (number) ([6]; 2 years): 41
subjects discontinuing treatment due to AEs (percent) ([6]; 2 years): 12%
subjects withdrew from the study ([6]; 2 years): 21%
